# Source: patent US20250264483A1, “IDENTIFICATION OF PROTHROMBOTIC CONDITIONS” (Sydney Local Health District, priority 2020, published 2025)
# Columns and labels:
# healthy donor platelets [1] = experiment: Procoagulant platelet flow cytometry assay (GSAO+/CD62P+), healthy donor whole blood with HIT patient plasma; format: cell-based, human; settings: for difference in proportion of PP with HIT+ plasma compared to HIT−, no plasma or autologous plasma: agonist alone, absence of exogenous heparin (SFLLRN 5 μM, ADP 20 μM, CRP-xL 2 μg/mL; FIG. 2)
# Protocol: (§1) The GSAO-based whole blood PP flow cytometry assay established by the inventors^4 was modified to incorporate patient plasma. Citrated whole blood (13 μL) was incubated with and without agonists, unfractionated heparin (Pfizer) and plasma (5 μL) for 10 minutes with final concentrations of 2.5 mM Gly-Pro-Arg-Pro peptide (Sigma-Aldrich) and 2.5 mM calcium chloride. […] In some experiments, blood was pre-treated with 10 μg/mL IV.3 (StemCell Technologies), a monoclonal antibody against FcγRIIa, for 15 minutes prior to the reaction. Samples were incubated with antibodies to CD45, CD41a, CD62P—or isotype control, and GSAO or GSCA, and fixed before analysis on a BD LSRFortessa X-20.
# Representative flow cytometry plots from a single donor comparing no plasma with HIT− or HIT+ plasma indicate that addition of HIT+ plasma altered the sub-population profile of the platelets with a marked increase in procoagulant (GSAO+/CD62P+) platelets (FIG. 1A). […] There was also a smaller but statistically significant increase seen with HIT− plasma compared to no plasma (53.63±6.82 vs 42.05±4.24, P<0.05) (FIG. 1B).
# healthy donor platelets [2] = experiment: Procoagulant platelet flow cytometry assay, healthy donor whole blood with APS patient plasma; format: cell-based, human; settings: for Average fold-change in procoagulant platelets: APS patient plasma
# Protocol: as §1
# Citrated whole blood (13 μL) was incubated with platelet agonists and plasma (5 μL) from healthy donors or patients, for 10 minutes with final concentrations of 2.5 mM Gly-Pro-Arg-Pro peptide (Sigma-Aldrich) and 2.5 mM calcium chloride in a 50 μL reaction. […] The reaction was stopped by further dilution with HBSS, followed by staining with antibodies to CD45 (HI30) (StemCell Technologies), CD41a (HIP8) (BD Biosciences), CD62P (Psel.KO2.3) (eBioscience)—or isotype control (eBioscience), and GSAO or control compound GSCA (4-(N—(S-glutathionylacetyl)amino)benzoic acid). Then, samples were fixed with PAMFix (Platelet Solutions Ltd), centrifuged and resuspended, prior to analysis on a BD LSRFortessa X-20 or BD FACSCanto II cytometer with acquisition of 10000 platelet events. Statistical analyses were performed using GraphPad Prism 9, with statistical significance set at p<0.05.
# healthy donor platelets [3] = experiment: Procoagulant platelet flow cytometry assay, healthy donor whole blood with VITT patient plasma; format: cell-based, human; settings: for proportion of procoagulant platelets: mean±SD
# [4] = cited from earlier work
# [5] = HIT+ plasma, agonist, no heparin (FIGS. 3B, D), mean±SEM
# [6] = HIT+ plasma, combined sample + agonist + therapeutic concentration heparin / high heparin control sample
# [7] = HIT+ plasma, combined sample + agonist + therapeutic concentration heparin / no heparin control sample
molecule,measurement,setting,value
"Nc1ncnc2c1ncn2[C@@H]1O[C@H](COP(=O)(O)OP(=O)(O)O)[C@@H](O)[C@H]1O [ADP, adenosine diphosphate]",proportion of PP,healthy donor platelets [1]; [5],5.66±0.79
same,Average fold-change in procoagulant platelets,healthy donor platelets [1]; [6],5.5 fold
same,Average fold-change in procoagulant platelets,healthy donor platelets [1]; [7],4.4 fold
same,"difference in proportion of PP with HIT+ plasma compared to HIT−, no plasma or autologous plasma",healthy donor platelets [1],no difference
SFLLRN,change in procoagulant response between patient and autologous plasma,"healthy donor platelets [2]; APS plasma vs autologous plasma (FIG. 13A, C)",No significant change
same,proportion of PP,healthy donor platelets [1]; [5],11.19±3.23
same,Average fold-change in procoagulant platelets,healthy donor platelets [1]; [6],8.5 fold
same,Average fold-change in procoagulant platelets,healthy donor platelets [1]; [7],3.7 fold
same,"difference in proportion of PP with HIT+ plasma compared to HIT−, no plasma or autologous plasma",healthy donor platelets [1],no difference
same,PP proportion,"healthy donor platelets [3]; SFLLRN 5 μM, ELISA false positive plasma (FIG. 9C)",3.93±0.78%
same,proportion of procoagulant platelets,"healthy donor platelets [3]; SFLLRN 5 μM, HIT-like VITT (heparin-enhancing VITT) plasma (FIG. 8B)",23.60±8.768
same,proportion of procoagulant platelets,"healthy donor platelets [3]; SFLLRN 5 μM, VITT negative plasma (FIG. 8B)",2.988±0.9564
same,proportion of procoagulant platelets,"healthy donor platelets [3]; SFLLRN 5 μM, VITT plasma (FIG. 8B)",16.34±13.74
same,PP proportion,"healthy donor platelets [3]; SFLLRN 5 μM, VITT-negative plasma (FIG. 9C)",4.50±2.09%
same,PP proportion,"healthy donor platelets [3]; SFLLRN 5 μM, healthy donor blood, no plasma (FIG. 9C)",3.86±0.97%
same,proportion of procoagulant platelets,"healthy donor platelets [3]; SFLLRN 5 μM, no plasma (FIG. 8B)",3.194±0.8185
same,PP proportion,"healthy donor platelets [3]; SFLLRN 5 μM, plasma from healthy individuals (FIG. 9C)",3.57±1.36%
heparin,occurrence of HIT in patients receiving the drug,[4],up to 3%
same,proportion of PP,"healthy donor platelets [1]; HIT+ plasma, ADP 20 μM, high-dose heparin 100 U/mL",5.16±0.52
same,proportion of PP,"healthy donor platelets [1]; HIT+ plasma, ADP 20 μM, therapeutic-concentration heparin 0.5 U/mL",25.22±5.94
same,proportion of PP,"healthy donor platelets [1]; HIT+ plasma, CRP-xL 2 μg/mL, high-dose heparin 100 U/mL",11.70±2.63
same,proportion of PP,"healthy donor platelets [1]; HIT+ plasma, CRP-xL 2 μg/mL, therapeutic-concentration heparin 0.5 U/mL",26.87±3.58
same,proportion of PP,"healthy donor platelets [1]; HIT+ plasma, SFLLRN 5 μM, high-dose heparin 100 U/mL",4.39±0.35
same,proportion of PP,"healthy donor platelets [1]; HIT+ plasma, SFLLRN 5 μM, therapeutic-concentration heparin 0.5 U/mL",36.53±7.50
same,"difference in PP formation in response to SFLLRN, ADP or CRP-xL","healthy donor platelets [1]; HIT− plasma, therapeutic or high heparin concentrations (FIGS. 3A, C, E)",no difference
same,difference in PP proportion compared to basal levels without exogenous plasma,"healthy donor platelets [1]; heparin 0.5 U/mL or 100 U/mL, HIT+ or HIT− plasma, no platelet agonist (FIG. 2)",no differences
same,PP response,"healthy donor platelets [3]; high-dose heparin 100 U/mL, HIT plasma, SFLLRN 5 μM (FIG. 10B)",3.48±1.02%
same,PP response,"healthy donor platelets [3]; high-dose heparin 100 U/mL, VITT plasma, SFLLRN 5 μM",3.54±1.41%
same,PP response,"healthy donor platelets [3]; low-dose heparin 0.5 U/mL, VITT plasma, SFLLRN 5 μM (FIG. 10A)",12.48±12.84%
low-molecular-weight heparin,occurrence of HIT in patients receiving the drug,[4],0.2%
"thrombin: bovine thrombin (Sigma-Aldrich), platelet agonist",Average fold-change in procoagulant platelets,healthy donor platelets [2]; combined sample / healthy control sample,5.7 fold
same,Average fold-change in procoagulant platelets,healthy donor platelets [2]; combined sample / healthy control sample + autologous plasma,2.1 fold
same,increase in procoagulant platelet proportions relative to no plasma,"healthy donor platelets [2]; autologous plasma, thrombin stimulation (FIG. 13B)",0.3-5.5%
same,increase in procoagulant platelet response,"healthy donor platelets [2]; plasma from an APS patient collected during plasma exchange, thrombin 1 U/mL, CRP-xL 2 μg/mL (FIG. 14)",4.5 fold
same,proportion of PP,"healthy donor platelets [1]; HIT+ plasma, absence of heparin (FIG. 6A, D), thrombin 1 U/mL, CRP-xL 2 μg/mL",18.86±3.94
same,proportion of PP,"healthy donor platelets [1]; HIT− plasma, absence of heparin (FIG. 6A, D), thrombin 1 U/mL, CRP-xL 2 μg/mL",19.55±4.16
same,proportion of PP,"healthy donor platelets [1]; no plasma, absence of heparin (FIG. 6A, D), thrombin 1 U/mL, CRP-xL 2 μg/mL",4.16±0.24
